# According to article PMC11868595, “Safety, pharmacokinetics and efficacy of HA121-28 in patients with advanced solid tumors and RET fusion-positive non-small-cell lung cancer: a multicenter, open-label, single-arm phase 1/2 trial” (Signal Transduction and Targeted Therapy, 2025):
# What was measured:
# [1] = tested on: RET fusion-positive NSCLC; assay: Tumor response by RECIST 1.1 (ORR, DCR, DOR, PFS), phase 1/2; type: in vivo, human; details: for Best response: Complete response / Best response: Not evaluable / Best response: Partial response / Best response: Progressive disease / Best response: Stable disease: ERS, investigator-assessed RECIST 1.1; for PFS: patient with previous RET-TKI treatment
# Experimental: Treatment-emergent adverse events (TEAEs) were documented during the entire study period. The predefined adverse event of special interest (AESI) was ≥ grade 3 prolonged QT interval. Tumor imaging was performed using contrast-enhanced computed tomography or magnetic resonance imaging at screening, Day 28 of the first cycle, then approximately every eight weeks till the end of the study for phase 1; in phase 2, imaging was scheduled at screening, and every eight weeks during the first 40 weeks, followed by every 12 weeks for the rest of the study period. RECIST 1.1 was used by the independent review committee or investigators for assessment of tumor response. After the original assessment, a repeated assessment was required around four weeks later to confirm a complete or partial response.
# The primary endpoints of phase 1 were to investigate the MTD, dose-limiting toxicities, and the incidence and severity of TEAEs. Each TEAE was graded according to the Common Terminology Criteria for Adverse Events (CTCAE, version 5.0) and coded by Medical Dictionary for Regulatory Activities (MedDRA, version 21.0). The secondary endpoints included calculating PK parameters, assessing the ORR and DCR at the recommended dose by investigators as per RECIST 1.1. The exploratory endpoint was PFS.
# The primary endpoint of phase 2 was the independent review committee evaluated ORR using RECIST 1.1. The secondary endpoints included investigators assessed ORR; DCR, PFS, and DOR by the independent review committee and investigators; overall survival and TEAEs. Each TEAE was graded according to CTCAE version 5.0 and coded by MedDRA (version 24.0). The phase 2 trial is ongoing; not all endpoints are reported in this paper.
# The full analysis set consisted of all patients who had administered at least one dose of HA121-28 and was used to calculate the baseline characteristics, OS, and PFS results. The safety set included all patients who had administered at least one dose of the HA121-28 and had at least one safety-related observation. This population was used for analysis of TEAEs. The efficacy evaluable set consisted of patients who had administered at least one dose of HA121-28 and completed at least one efficacy assessment following study treatment. This population was used to calculate the ORR, DOR, and DCR. In addition, the ORRs for subgroup analyses, including age ( < 60, ≥60), ECOG PS (0 or 1), gender (male or female), prior treatment with TKIs (yes or no), brain or liver metastasis (yes or no), were also calculated. The plasma drug concentration-time profile was characterized using PK concentration set that included patients who had administered at least one dose of HA121-28 and had at least one measurable plasma concentration of HA121-28. The PK parameter set was used to calculate PK parameters, which consisted of patients who had administered at least one dose of HA121-28 with at least one valid PK parameter. ORR and DCR were described using the Clopper-Pearson method with two-sided 95% confidence intervals (CIs). PFS and DOR were assessed using the Kaplan-Meier method, including an estimate of the median, along with corresponding 95% CIs. Statistical analyses of clinical outcomes were conducted by SAS (version 9.4 or later) and R software 4.1.0 for genomic DNA from pre-treatment tumor tissue (http://cran.r-project.org).
# [2] = tested on: EGFR signaling in tumor tissue; assay: PK/PD in plasma and tumor tissue of tumor-bearing mice; type: in vivo; details: after a single dose, 25 and 50 mg/kg
# [3] = Metabolites in plasma; details: rats
# [4] = Excretion after gastric lavage; type: in vivo, rats
# [5] = tested on: RET and ERK activation; assay: Activation of RET and ERK in TT cells; type: cell-based, human; details: concentration-dependent
# [6] = Safety pharmacology: respiratory function and neurological behavior; type: in vivo, rats; details: single oral dose 30, 100, and 300 mg/kg
# [7] = target: PDGFRβ (Homo sapiens, UniProt P09619); assay: Tyrosine kinase inhibition; type: biochemical
# [8] = target: LCK (Homo sapiens, UniProt P06239); assay: Tyrosine kinase inhibition; type: biochemical
# [9] = tested on: CFPAC-1 cells; assay: Tumor cell proliferation in vitro; type: cell-based
# [10] = RET fusion-positive NSCLC, ≥450 mg q.d.
# PDGFRβ, sequence (P09619 33-1106): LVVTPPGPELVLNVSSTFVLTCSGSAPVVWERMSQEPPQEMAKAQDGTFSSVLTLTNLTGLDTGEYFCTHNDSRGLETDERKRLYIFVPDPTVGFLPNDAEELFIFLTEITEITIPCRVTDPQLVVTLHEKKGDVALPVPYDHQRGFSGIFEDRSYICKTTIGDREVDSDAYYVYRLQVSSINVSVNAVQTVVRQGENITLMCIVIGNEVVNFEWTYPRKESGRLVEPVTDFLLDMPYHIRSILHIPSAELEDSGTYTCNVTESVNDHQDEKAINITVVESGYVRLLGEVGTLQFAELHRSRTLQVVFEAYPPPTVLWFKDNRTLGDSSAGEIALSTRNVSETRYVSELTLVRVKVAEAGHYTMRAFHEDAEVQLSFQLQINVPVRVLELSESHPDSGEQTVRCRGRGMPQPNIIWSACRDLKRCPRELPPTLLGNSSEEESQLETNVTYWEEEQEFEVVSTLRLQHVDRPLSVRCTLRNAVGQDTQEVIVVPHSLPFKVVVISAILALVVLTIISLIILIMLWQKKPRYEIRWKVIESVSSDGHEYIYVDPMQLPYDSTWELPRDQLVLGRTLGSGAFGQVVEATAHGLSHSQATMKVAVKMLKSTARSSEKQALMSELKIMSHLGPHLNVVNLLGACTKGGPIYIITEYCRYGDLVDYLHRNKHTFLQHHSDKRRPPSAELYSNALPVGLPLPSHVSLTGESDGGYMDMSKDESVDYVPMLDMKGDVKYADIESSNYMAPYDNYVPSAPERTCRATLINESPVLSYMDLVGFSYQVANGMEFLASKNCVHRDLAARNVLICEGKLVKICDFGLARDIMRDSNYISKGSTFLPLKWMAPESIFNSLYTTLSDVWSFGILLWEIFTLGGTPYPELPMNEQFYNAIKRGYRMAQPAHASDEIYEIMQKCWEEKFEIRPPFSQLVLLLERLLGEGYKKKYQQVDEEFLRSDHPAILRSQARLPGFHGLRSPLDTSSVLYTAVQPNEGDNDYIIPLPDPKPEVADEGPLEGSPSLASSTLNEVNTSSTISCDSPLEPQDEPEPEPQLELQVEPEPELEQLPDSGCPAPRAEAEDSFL
# LCK, sequence (P06239 whole entry): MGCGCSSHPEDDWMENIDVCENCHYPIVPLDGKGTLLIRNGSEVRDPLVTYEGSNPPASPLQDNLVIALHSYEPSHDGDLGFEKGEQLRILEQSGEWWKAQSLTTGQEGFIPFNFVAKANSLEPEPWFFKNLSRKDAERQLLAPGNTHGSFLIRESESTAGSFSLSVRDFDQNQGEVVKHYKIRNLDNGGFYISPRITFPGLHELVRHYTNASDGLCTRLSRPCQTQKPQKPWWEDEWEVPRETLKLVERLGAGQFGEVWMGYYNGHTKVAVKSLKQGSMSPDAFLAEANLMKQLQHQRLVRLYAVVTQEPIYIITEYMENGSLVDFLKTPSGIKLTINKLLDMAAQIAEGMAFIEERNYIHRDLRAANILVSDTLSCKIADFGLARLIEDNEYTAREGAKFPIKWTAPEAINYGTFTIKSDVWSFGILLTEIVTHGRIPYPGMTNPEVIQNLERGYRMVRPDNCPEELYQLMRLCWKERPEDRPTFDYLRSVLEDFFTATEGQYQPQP
smiles,measurement,setting,value
"COc1cc2c(Nc3ccc(Br)cc3F)ncnc2cc1OCCCCN(C)C.Cl.Cl [HA121-28, N-(4-bromo-2-fluorophenyl)-7-(4-(dimethylamino)butoxy)-6-methoxy quinazolin-4-amine dihydrochloride]",tumor response,"[1]; 73 patients with non-RET fusion tumors, phase 1 dose expansion",no response
same,confirmed ORR (investigator-assessed),"[1]; 97 RET fusion-positive NSCLC patients, ≥450 mg q.d.",26.8%
same,Best response: Complete response,[1]; All (N=97),0 No. (%)
same,Best response: Not evaluable,[1]; All (N=97),4 (4.1) No. (%)
same,Best response: Partial response,[1]; All (N=97),26 (26.8) No. (%)
same,Best response: Progressive disease,[1]; All (N=97),23 (23.7) No. (%)
same,Best response: Stable disease,[1]; All (N=97),44 (45.4) No. (%)
same,Best response: Complete response,[1]; CCDC6 (N=15),0 No. (%)
same,Best response: Not evaluable,[1]; CCDC6 (N=15),1 (6.7) No. (%)
same,Best response: Partial response,[1]; CCDC6 (N=15),7 (46.7) No. (%)
same,Best response: Progressive disease,[1]; CCDC6 (N=15),1 (6.7) No. (%)
same,Best response: Stable disease,[1]; CCDC6 (N=15),6 (40.0) No. (%)
same,confirmed ORR,[1]; CCDC6-RET fusion patients,46.7%
same,median DOR,[1]; CCDC6-RET fusion patients,14.0 months
same,median PFS,[1]; CCDC6-RET fusion patients,14.9 months
same,Best response: Complete response,[1]; KIF5B (N=71),0 No. (%)
same,Best response: Not evaluable,[1]; KIF5B (N=71),2 (2.8) No. (%)
same,Best response: Partial response,[1]; KIF5B (N=71),18 (25.4) No. (%)
same,Best response: Progressive disease,[1]; KIF5B (N=71),21 (29.6) No. (%)
same,Best response: Stable disease,[1]; KIF5B (N=71),30 (42.3) No. (%)
same,confirmed ORR,[1]; KIF5B-RET fusion patients,25.4%
same,median DOR,[1]; KIF5B-RET fusion patients,7.7 months
same,median PFS,[1]; KIF5B-RET fusion patients,5.5 months
same,Best response: Complete response,[1]; Other (N=11),0 No. (%)
same,Best response: Not evaluable,[1]; Other (N=11),1 (9.1) No. (%)
same,Best response: Partial response,[1]; Other (N=11),1 (9.1) No. (%)
same,Best response: Progressive disease,[1]; Other (N=11),1 (9.1) No. (%)
same,Best response: Stable disease,[1]; Other (N=11),8 (72.7) No. (%)
same,patients with shrinkage in tumor size,[1]; RET fusion-positive NSCLC (66 of 97),68.0%
same,DCR,[1]; [10],72.2%
same,median PFS,[1]; [10],5.5 months
same,patients with partial response,[1]; TP53 wild-type group (5 out of 15),33.3%
same,patients with partial response,[1]; concurrent TP53 mutation (1 out of 11),9.1%
same,PFS,"[1]; SD, dosing 176 days",5.52 months
same,PFS,"[1]; confirmed PR, dosing 167 days",5.36 months
same,patients with partial response,"[1]; phase 1, advanced RET fusion NSCLC with at least one efficacy evaluation, as of April 28, 2021",7 of 17
same,ORR,[1]; subgroup ECOG PS of 0,35.5%
same,ORR,[1]; subgroup age < 60,30.9%
same,ORR,[1]; subgroup with liver metastasis,37.5%
same,onset of inhibition of EGFR signaling pathway,[2],2 h
same,number of metabolites found in plasma,[3],7
same,excretion in original form,[4]; bile,3.91%
same,excretion in original form,[4]; feces,27.5%
same,excretion in original form,[4]; urine,2.18%
same,total excretion rate,[4]; urine and feces,29.7%
same,activation of RET and downstream ERK,[5],significantly inhibited
same,respiratory function and neurological behavior,[6],did not affect
same,IC50,[7],165 nM
same,IC50,[8],14 nM
same,IC50,[9],207 ± 38.3 nM
